How the values were obtained:
Assay in all cases: relative viability (nuclei count vs DMSO), 5 days (fraction); higher = more cells survive
BX 795 + Alpelisib = compound: O=C(NCCCNc1nc(Nc2cccc(NC(=O)N3CCCC3)c2)ncc1I)c1cccs1 [BX 795] + Cc1nc(NC(=O)N2CCC[C@H]2C(N)=O)sc1-c1ccnc(C(C)(C)C(F)(F)F)c1 [Alpelisib] (partner 2 µM)
Outline: (§1)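 Five library-drug doses in √10 steps were combined with a fixed anchor-drug dose, or a single drug was given alone, by pin tool to lung cancer cell lines in 1536-well plates the day after seeding. Nuclei were stained and counted after 5 days. Relative viability is the nuclei count in treated wells over that in vehicle wells, taken as the median of duplicate plates.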

BX 795 + Foretinib = compound: O=C(NCCCNc1nc(Nc2cccc(NC(=O)N3CCCC3)c2)ncc1I)c1cccs1 [BX 795] + COc1cc2c(Oc3ccc(NC(=O)C4(C(=O)Nc5ccc(F)cc5)CC4)cc3F)ccnc2cc1OCCCN1CCOCC1 [Foretinib] (partner 0.25 µM)
Outline: as §1

BX 795 + Navitoclax = compound: O=C(NCCCNc1nc(Nc2cccc(NC(=O)N3CCCC3)c2)ncc1I)c1cccs1 [BX 795] + CC1(C)CCC(c2ccc(Cl)cc2)=C(CN2CCN(c3ccc(C(=O)NS(=O)(=O)c4ccc(N[C@H](CCN5CCOCC5)CSc5ccccc5)c(S(=O)(=O)C(F)(F)F)c4)cc3)CC2)C1 [Navitoclax] (partner 0.5 µM)
Outline: as §1

BX 795 + OSI-027 = compound: O=C(NCCCNc1nc(Nc2cccc(NC(=O)N3CCCC3)c2)ncc1I)c1cccs1 [BX 795] + COc1cccc2cc(-c3nc([C@H]4CC[C@H](C(=O)O)CC4)n4ncnc(N)c34)[nH]c12 [OSI-027] (partner 0.5 µM)
Outline: as §1

BX 795 + Olaparib = compound: O=C(NCCCNc1nc(Nc2cccc(NC(=O)N3CCCC3)c2)ncc1I)c1cccs1 [BX 795] + O=C(c1cc(Cc2n[nH]c(=O)c3ccccc23)ccc1F)N1CCN(C(=O)C2CC2)CC1 [Olaparib] (partner 8 µM)
Outline: as §1

| Cell Line | relative viability (BX 795 + Alpelisib; first compound 0.04 µM) | relative viability (BX 795 + Alpelisib; first compound 0.1265 µM) | relative viability (BX 795 + Alpelisib; first compound 0.4 µM) | relative viability (BX 795 + Alpelisib; first compound 1.265 µM) | relative viability (BX 795 + Foretinib; first compound 0.04 µM) | relative viability (BX 795 + Foretinib; first compound 0.1265 µM) | relative viability (BX 795 + Foretinib; first compound 0.4 µM) | relative viability (BX 795 + Foretinib; first compound 1.265 µM) | relative viability (BX 795 + Navitoclax; first compound 0.1265 µM) | relative viability (BX 795 + Navitoclax; first compound 0.4 µM) | relative viability (BX 795 + Navitoclax; first compound 1.265 µM) | relative viability (BX 795 + OSI-027; first compound 0.04 µM) | relative viability (BX 795 + OSI-027; first compound 0.1265 µM) | relative viability (BX 795 + OSI-027; first compound 0.4 µM) | relative viability (BX 795 + OSI-027; first compound 1.265 µM) | relative viability (BX 795 + Olaparib; first compound 0.04 µM) | relative viability (BX 795 + Olaparib; first compound 0.1265 µM) | relative viability (BX 795 + Olaparib; first compound 0.4 µM) | relative viability (BX 795 + Olaparib; first compound 1.265 µM) | relative viability (BX 795 + Navitoclax; first compound 0.04 µM) |
| --- | --- | --- | --- | --- | --- | --- | --- | --- | --- | --- | --- | --- | --- | --- | --- | --- | --- | --- | --- | --- |
| NCI-H647 | 1.13 | 1.18 | 1.31 | 0.522 | 1.19 | 1.24 | 1.26 | 0.916 | 1.08 | 1.07 | 1.01 | 0.723 | 0.826 | 0.581 | 0.584 | 0.406 | 0.565 | 0.288 | 0.232 | – |
| NCI-H727 | 0.577 | 0.763 | 0.583 | 0.376 | 0.957 | 0.846 | 0.916 | 1.09 | 0.535 | 0.471 | 0.37 | 0.761 | 0.635 | 0.537 | 0.557 | 0.725 | 0.72 | 1.02 | 0.685 | 0.45 |
| NCI-H838 | 0.944 | 1.03 | 0.995 | 0.412 | 0.952 | 0.924 | 0.917 | 0.413 | 1.1 | 1.02 | 0.519 | 0.386 | 0.338 | 0.379 | 0.303 | 0.853 | 0.757 | 0.643 | 0.248 | 1.05 |
| NCI-H1355 | 0.833 | 0.808 | 0.914 | 0.781 | 1.03 | 1.07 | 1.09 | 0.773 | 0.937 | 1.09 | 0.626 | 0.407 | 0.405 | 0.44 | 0.379 | 0.827 | 0.663 | 0.806 | 0.571 | 0.974 |
| NCI-H1395 | 1.3 | 0.956 | 0.663 | 0.809 | 0.979 | 1.02 | 0.943 | 0.899 | 1.06 | 0.531 | 0.837 | 0.635 | 0.686 | 0.482 | 0.498 | 0.452 | 0.468 | 0.449 | 0.501 | 1.23 |
| NCI-H1437 | 1.02 | 1.06 | 1.01 | 0.863 | 1.08 | 1.25 | 1.39 | 0.99 | 1.06 | 1.15 | 0.94 | 0.879 | 0.89 | 0.834 | 0.847 | 0.632 | 0.664 | 0.651 | 0.483 | 1.08 |
| NCI-H1651 | 0.933 | 1.02 | 0.881 | 0.782 | 0.786 | 0.748 | 0.76 | 0.674 | 1.13 | 1.04 | 0.932 | 0.588 | 0.716 | 0.576 | 0.765 | 0.193 | 0.166 | 0.167 | 0.163 | 1 |
| NCI-H1666 | 1.07 | 1.11 | 1.01 | 0.799 | 1.07 | 1.05 | 1.11 | 0.787 | 1.31 | 1.14 | 0.717 | 0.859 | 0.876 | 0.993 | 0.803 | 0.939 | 0.707 | 0.938 | 0.726 | 1.12 |
